Data reported in paper PMC6332024, “Molecular Cloning and Characterization of a Xanthone Prenyltransferase from Hypericum calycinum Cell Cultures” (Molecules, 2015).

System: T1, HcPT
T1 construct: pFastBac1 baculovirus, microsomes of Sf9 insect cells
Test: HPLC-DAD prenylation assay with Sf9 microsomes, Lineweaver-Burk
Assay type: biochemical, Hypericum calycinum
Conditions: 4 mM MgCl2, 0.5 mM dithiothreitol, 50 mM potassium phosphate pH 7.5, 40 °C, 30 min

Row | Km (400 µM DMAPP constant) [µM] | Km (500 µM 1,3,6,7-tetrahydroxyxanthone constant) [µM] | SMILES
1 | 211 ± 16 |  | O=c1c2cc(O)c(O)cc2oc2cc(O)cc(O)c12 [1,3,6,7-THX, 1,3,6,7-tetrahydroxyxanthone]
2 |  | 87 ± 5 | CC(C)=CCOP(=O)(O)OP(=O)(O)O [DMAPP, dimethylallyl diphosphate]
